Read-outs that look alike come from different tables or passages of the source. Each block holds one compound with its values, some of them ahead of it.
Columns and labels:
[1] = system: IL-8 release, d-U937 cells; assay: LPS-induced IL-8 release in d-U937 cells; format: cell-based; settings: Homo sapiens, dU937
In short: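 IL-8 release after a 4 hr challenge with LPS (0.1 μg/mL, E. coli 0111:B4) following a 2 hr compound pretreatment. Cells were human U937 monocytes differentiated to macrophage-type with PMA 100 ng/mL for 48–72 hr. Relative 50% effective concentration derived from concentration–response data.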

[2] = system: TNFα release, d-U937 cells; assay: LPS-induced TNFα release in d-U937 cells; format: cell-based; settings: Homo sapiens, dU937; for EC50: relative to 10 μg/mL BIRB796, Table 4c1, read-out: LPS Induced Release of Cytokine in d-U937 Cells, TNFα REC50; for IC50: Table 4c2, different laboratory, read-out: IC50 Values for Inhibition of Cytokine Release, dU937 cells, TNFα
In short: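 U937 cells differentiated with PMA (100 ng/mL, 48–72 hr), pre-treated with compound for 2 hr, then stimulated with E. coli LPS (0.1 μg/mL) for 4 hr. Supernatant cytokine measured by sandwich ELISA; inhibition versus vehicle control, REC50 from concentration-response curve.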

cSrc = cSrc (Homo sapiens, UniProt P12931); assay: c-Src enzyme inhibition (FRET); format: biochemical
Sequence of cSrc (P12931 whole entry): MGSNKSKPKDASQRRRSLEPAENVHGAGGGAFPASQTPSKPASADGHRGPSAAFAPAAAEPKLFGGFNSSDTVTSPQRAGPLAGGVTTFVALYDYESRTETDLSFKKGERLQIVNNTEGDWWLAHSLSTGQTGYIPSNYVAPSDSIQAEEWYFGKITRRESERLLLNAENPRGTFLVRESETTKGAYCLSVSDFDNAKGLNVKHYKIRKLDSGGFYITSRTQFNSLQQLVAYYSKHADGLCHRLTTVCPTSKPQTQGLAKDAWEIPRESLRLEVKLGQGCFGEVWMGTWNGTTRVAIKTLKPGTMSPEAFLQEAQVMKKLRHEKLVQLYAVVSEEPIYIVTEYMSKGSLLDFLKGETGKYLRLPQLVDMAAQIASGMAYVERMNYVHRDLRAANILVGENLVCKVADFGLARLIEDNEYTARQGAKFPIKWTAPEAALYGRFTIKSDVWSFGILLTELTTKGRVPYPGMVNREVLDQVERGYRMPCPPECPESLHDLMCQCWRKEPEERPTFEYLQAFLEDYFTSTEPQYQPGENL
In short: (§1)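 2 hr RT enzyme + cpd (added solns 4/0.4/0.04/0.004 μg/mL); + FRET peptide (8 μM soln) + ATP soln (c-Src 800 μM, Syk 60 μM), 1 hr; protease development 1 hr; read donor/acceptor emission ratio.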

Syk = Syk (Homo sapiens, UniProt P43405); assay: Syk enzyme inhibition (FRET); format: biochemical
In short: as §1

[3] = system: ICAM-1 expression, BEAS2B cells; assay: Poly I:C-induced ICAM-1 expression in BEAS2B cells; format: cell-based; settings: Homo sapiens, BEAS-2B; read-out: Poly IC induced ICAM1 in BEAS2B, IC50
In short: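 BEAS2B human bronchial epithelial cells pre-incubated 2 h with compound, then transfected with poly I:C (1 μg/mL) plus Oligofectamine. After 18 h, cell-surface ICAM-1 read by cell-based ELISA (A450–655), normalised to Crystal Violet cell number (A595); inhibition calculated against vehicle control at each concentration.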

IL-2 release, PBMCs = assay: IL-2 release in CD3/CD28 stimulated PBMC cells; format: cell-based; settings: Homo sapiens, read-out: IC50 Values for Inhibition of Cytokine Release, PBMCs, IL-2
PBMC cells = assay: Cell mitosis assay; format: cell-based; settings: Homo sapiens, read-out: % Inhibition of mitosis in PBMC cells at 5 μg/mL
In short: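 Healthy-donor PBMCs (3 million cells per sample) stimulated with 2% PHA for 48 hr, then exposed 20 hr to varying compound concentrations. Demecolcine (0.1 μg/mL) added 2 hr before collection to arrest cells in metaphase; read by flow cytometry gated on lymphocytes.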

[4] = Table 4c1, read-out: LPS Induced Release of Cytokine in d-U937 Cells, IL-8 IC50
[5] = Table 4c2, different laboratory, read-out: IC50 Values for Inhibition of Cytokine Release, dU937 cells, IL-8
[6] = Table 4a2, different laboratory

SMILES: COc1cc(Nc2nccc(Oc3ccc(NC(=O)Nc4cc(C5CC5)nn4-c4ccc(C)cc4)c4ccccc34)n2)cc(C(=O)NCCN2CCOCC2)c1 [Example 50, 3-((4-((4-(3-(3-cyclopropyl-1-(p-tolyl)-1H-pyrazol-5-yl)ureido)naphthalen-1-yl)oxy)pyrimidin-2-yl)amino)-5-methoxy-N-(2-morpholinoethyl)benzamide]
IC50 [1, 4]: 8 nM
EC50 [2]: 5.2 nM
IC50 (cSrc; Table 4a1): < 1 nM
IC50 (Syk; Table 4a1): 32 nM
IC50 [3]: 16.6 nM

SMILES: C#Cc1cc(Nc2nccc(Oc3ccc(NC(=O)Nc4cc(C(C)(C)C)nn4-c4ccc(OC)cc4)c4ccccc34)n2)cc(C(=O)NCCN2CCOCC2)c1 [Example 77, 3-((4-((4-(3-(3-(tert-Butyl)-1-(4-methoxyphenyl)-1H-pyrazol-5-yl)ureido)-naphthalen-1-yl)oxy)pyrimidin-2-yl)amino)-5-ethynyl-N-(2-morpholinoethyl)benzamide]
IC50 (IL-2 release, PBMCs): 42.8 nM
inhibition at 5 µg/mL (PBMC cells): -0.3%
IC50 [1, 5]: 0.9 nM
IC50 [2]: 0.4 nM
IC50 (cSrc; [6]): 12 nM
IC50 (Syk; [6]): 18 nM

SMILES: COc1ccc(-n2nc(C3(C)COC3)cc2NC(=O)Nc2ccc(Oc3ccnc(Nc4cccc(C(=O)NCCN5CCOCC5)c4)n3)c3ccccc23)cc1 [Example 23, 3-((4-((4-(3-(1-(4-methoxyphenyl)-3-(3-methyloxetan-3-yl)-1H-pyrazol-5-yl)ureido)naphthalen-1-yl)oxy)pyrimidin-2-yl)amino)-N-(2-morpholinoethyl)benzamide]
inhibition at 5 µg/mL (PBMC cells): 35.6%
IC50 [1, 4]: 2.3 nM
EC50 [2]: 5.2 nM
IC50 (cSrc; Table 4a1): < 1 nM
IC50 (Syk; Table 4a1): 203 nM
IC50 [3]: 27.7 nM

SMILES: COCCNC(=O)c1cc(Nc2nccc(Oc3ccc(NC(=O)Nc4cc(C(C)C)nn4-c4ccc(OC)cc4)c4ccccc34)n2)cc(OC)c1 [Example 11, 3-((4-((4-(3-(3-Isopropyl-1-(4-methoxyphenyl)-1H-pyrazol-5-yl)ureido)naphthalen-1-yl)oxy)pyrimidin-2-yl)amino)-5-methoxy-N-(2-methoxyethyl)benzamide]
IC50 (IL-2 release, PBMCs): 27.5 nM
inhibition at 5 µg/mL (PBMC cells): 50.7%
IC50 [1, 4]: 1.3 nM
IC50 [2]: 0.3 nM
EC50 [2]: 0.2 nM
IC50 (cSrc; Table 4a1): 8 nM
IC50 (cSrc; [6]): 15 nM
IC50 (Syk; Table 4a1): 75 nM
IC50 (Syk; [6]): 126 nM
IC50 [3]: 1.2 nM

SMILES: C#Cc1cc(Nc2nccc(Oc3ccc(NC(=O)Nc4cc(C(C)(C)C)nn4-c4ccc(N(C)C)cc4)c4ccccc34)n2)cc(C(=O)NCCN2CCOCC2)c1 [Example 80, 3-((4-((4-(3-(3-(tert-Butyl)-1-(4-(dimethylamino)phenyl)-1H-pyrazol-5-yl)ureido)naphthalen-1-yl)oxy)pyrimidin-2-yl)amino)-5-ethynyl-N-(2-morpholinoethyl)-benzamide]
IC50 (IL-2 release, PBMCs): 2.3 nM
inhibition at 5 µg/mL (PBMC cells): 10.4%
IC50 [1, 5]: 0.5 nM
IC50 [2]: 0.3 nM
IC50 (cSrc; [6]): 19 nM
IC50 (Syk; [6]): 25 nM

SMILES: COc1cc(Nc2cc(Oc3ccc(NC(=O)Nc4cc(C(C)(C)C)nn4-c4ccc(C)cc4)c4ccccc34)ccn2)cc(C(=O)NCCN2CCOCC2)c1 [Example 1, 3-((4-((4-(3-(3-(tert-Butyl)-1-(p-tolyl)-1H-pyrazol-5-yl)ureido)naphthalen-1-yl)oxy)pyridin-2-yl)amino)-5-methoxy-N-(2-morpholinoethyl)benzamide]
IC50 (IL-2 release, PBMCs): 84.3 nM
inhibition at 5 µg/mL (PBMC cells): 39.3%
IC50 [1, 4]: 1.8 nM
IC50 [1, 5]: 2.8 nM
IC50 [2]: 2.1 nM
EC50 [2]: 0.7 nM
IC50 (cSrc; Table 4a1): 5 nM
IC50 (cSrc; [6]): 27 nM
IC50 (Syk; Table 4a1): 10 nM
IC50 (Syk; [6]): 66 nM
IC50 [3]: 3.4 nM

SMILES: COc1ccc(-n2nc(C(C)(C)C)cc2NC(=O)Nc2ccc(Oc3ccnc(Nc4cc(Br)cc(C(N)=O)c4)n3)c3ccccc23)cc1 [Example 42, 3-bromo-5-((4-((4-(3-(3-(tert-butyl)-1-(4-methoxyphenyl)-1H-pyrazol-5-yl)ureido)naphthalen-1-yl)oxy)pyrimidin-2-yl)amino)benzamide]
inhibition at 5 µg/mL (PBMC cells): 12.9%
IC50 [1, 4]: 2 nM
EC50 [2]: 1.5 nM
IC50 (cSrc; Table 4a1): 20 nM
IC50 (Syk; Table 4a1): 67 nM
IC50 [3]: 2.3 nM

Second part, led by results:

IC50 [1, 4]: 0.6 nM
EC50 [2]: 1 nM
IC50 (cSrc; Table 4a1): < 1 nM
IC50 (Syk; Table 4a1): 649 nM
SMILES: COc1cc(Nc2nccc(Oc3ccc(NC(=O)Nc4cc(C5(C)CC5)nn4-c4ccc(C)cc4)c4ccccc34)n2)cc(C(=O)NCCN2CCOCC2)c1 [Example 51, 3-methoxy-5-((4-((4-(3-(3-(1-methylcyclopropyl)-1-(p-tolyl)-1H-pyrazol-5-yl)ureido)naphthalen-1-yl)oxy)pyrimidin-2-yl)amino)-N-(2-morpholinoethyl)benzamide]
inhibition at 5 µg/mL (PBMC cells): 20%
IC50 [3]: 3.6 nM

IC50 [1, 5]: 2.4 nM
IC50 [2]: 1.1 nM
IC50 (cSrc; [6]): 14 nM
IC50 (Syk; [6]): 22 nM
SMILES: C#Cc1cc(Nc2nccc(Oc3ccc(NC(=O)Nc4cc(C(C)C)nn4-c4ccc(C)cc4)c4ccccc34)n2)cc(C(=O)NCCN2CCOCC2)c1 [Example 46, 3-ethynyl-5-((4-((4-(3-(3-isopropyl-1-(p-tolyl)-1H-pyrazol-5-yl)ureido)naphthalen-1-yl)oxy)pyrimidin-2-yl)amino)-N-(2-morpholinoethyl)benzamide]
IC50 (IL-2 release, PBMCs): 59.5 nM
inhibition at 5 µg/mL (PBMC cells): -6.7%

IC50 [1, 4]: 1.1 nM
IC50 [2]: 0.7 nM
EC50 [2]: 0.3 nM
IC50 (cSrc; Table 4a1): < 1 nM
IC50 (cSrc; [6]): 8 nM
IC50 (Syk; Table 4a1): 3 nM
SMILES: COc1ccc(-n2nc(C(C)C)cc2NC(=O)Nc2ccc(Oc3ccnc(Nc4cc(OC)cc(C(=O)NCCN5CCOCC5)c4)n3)c3ccccc23)cc1 [Example 53, 3-((4-((4-(3-(3-isopropyl-1-(4-methoxyphenyl)-1H-pyrazol-5-yl)ureido)naphthalen-1-yl)oxy)pyrimidin-2-yl)amino)-5-methoxy-N-(2-morpholinoethyl)benzamide]
IC50 (IL-2 release, PBMCs): 44.1 nM
inhibition at 5 µg/mL (PBMC cells): 39.4%
IC50 [3]: 4 nM

IC50 [1, 4]: 0.3 nM
IC50 [1, 5]: 1.4 nM
IC50 [2]: 1.1 nM
EC50 [2]: 0.8 nM
IC50 (cSrc; Table 4a1): < 1 nM
IC50 (cSrc; [6]): 41 nM
IC50 (Syk; Table 4a1): 3 nM
IC50 (Syk; [6]): 224 nM
SMILES: COc1cc(Nc2nccc(Oc3ccc(NC(=O)Nc4cc(C(C)C)nn4-c4ccc(C)cc4)c4ccccc34)n2)cc(C(=O)NCCN2CCOCC2)c1 [Example 8, 3-((4-((4-(3-(3-Isopropyl-1-(p-tolyl)-1H-pyrazol-5-yl)ureido)naphthalen-1-yl)oxy)pyrimidin-2-yl)amino)-5-methoxy-N-(2-morpholinoethyl)benzamide]
IC50 (IL-2 release, PBMCs): 35.3 nM
inhibition at 5 µg/mL (PBMC cells): 15.3%
IC50 [3]: 1.1 nM

IC50 [1, 4]: 1.5 nM
IC50 [2]: 2.7 nM
EC50 [2]: 0.2 nM
IC50 (cSrc; Table 4a1): 13 nM
IC50 (cSrc; [6]): 27 nM
SMILES: Cc1ccc(-n2nc(C(C)C)cc2NC(=O)Nc2ccc(Oc3ccnc(Nc4cc(C(=O)NCCN5CCOCC5)cc(C(F)(F)F)c4)n3)c3ccccc23)cc1 [Example 7, 3-((4-((4-(3-(3-isopropyl-1-(p-tolyl)-1H-pyrazol-5-yl)ureido)naphthalen-1-yl)oxy)pyrimidin-2-yl)amino)-N-(2-morpholinoethyl)-5-(trifluoromethyl)benzamide]
IC50 (IL-2 release, PBMCs): 260 nM
inhibition at 5 µg/mL (PBMC cells): 20.6%
IC50 [3]: 1.5 nM

IC50 [1, 4]: 1.4 nM
EC50 [2]: 0.9 nM
IC50 (cSrc; Table 4a1): 2 nM
IC50 (cSrc; [6]): 21 nM
SMILES: COc1cc(Nc2nccc(Oc3ccc(NC(=O)Nc4cc(C(F)(F)C(F)(F)F)nn4-c4ccc(C)cc4)c4ccccc34)n2)cc(C(=O)NCCN2CCOCC2)c1 [Example 9]
IC50 (IL-2 release, PBMCs): 132 nM
inhibition at 5 µg/mL (PBMC cells): 20.7%
IC50 [3]: 6.9 nM
